Assay [1] has as its target T1, Androgen receptor (Rattus norvegicus, UniProt P15207).
T1 sequence (P15207 whole entry): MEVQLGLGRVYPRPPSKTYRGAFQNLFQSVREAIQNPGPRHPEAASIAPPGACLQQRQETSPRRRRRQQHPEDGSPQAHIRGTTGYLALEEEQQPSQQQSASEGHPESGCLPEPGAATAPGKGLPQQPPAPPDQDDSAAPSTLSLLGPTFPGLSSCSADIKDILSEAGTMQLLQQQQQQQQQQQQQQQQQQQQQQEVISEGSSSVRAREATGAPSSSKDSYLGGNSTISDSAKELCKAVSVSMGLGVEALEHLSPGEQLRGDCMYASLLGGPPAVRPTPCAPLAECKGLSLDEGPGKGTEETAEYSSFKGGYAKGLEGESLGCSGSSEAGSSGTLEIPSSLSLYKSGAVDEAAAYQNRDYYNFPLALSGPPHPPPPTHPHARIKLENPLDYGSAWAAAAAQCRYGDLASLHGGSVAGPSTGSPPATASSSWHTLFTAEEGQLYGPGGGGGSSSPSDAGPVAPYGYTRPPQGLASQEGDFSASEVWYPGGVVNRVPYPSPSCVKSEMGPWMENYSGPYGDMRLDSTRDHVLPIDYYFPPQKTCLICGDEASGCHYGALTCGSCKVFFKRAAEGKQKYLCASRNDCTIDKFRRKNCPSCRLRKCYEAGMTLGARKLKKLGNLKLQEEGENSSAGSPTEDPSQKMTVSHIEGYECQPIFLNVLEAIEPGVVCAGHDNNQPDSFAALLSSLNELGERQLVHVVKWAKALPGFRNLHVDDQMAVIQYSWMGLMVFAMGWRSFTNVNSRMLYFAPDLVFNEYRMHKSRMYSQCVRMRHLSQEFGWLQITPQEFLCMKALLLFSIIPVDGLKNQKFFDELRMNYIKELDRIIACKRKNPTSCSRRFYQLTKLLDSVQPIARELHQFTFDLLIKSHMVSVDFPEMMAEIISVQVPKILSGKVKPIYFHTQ
The class given is functional.

Assay [2] concerns the target T2, Peroxisome proliferator-activated receptor alpha (Homo sapiens, UniProt Q07869).
T2 sequence (Q07869 whole entry): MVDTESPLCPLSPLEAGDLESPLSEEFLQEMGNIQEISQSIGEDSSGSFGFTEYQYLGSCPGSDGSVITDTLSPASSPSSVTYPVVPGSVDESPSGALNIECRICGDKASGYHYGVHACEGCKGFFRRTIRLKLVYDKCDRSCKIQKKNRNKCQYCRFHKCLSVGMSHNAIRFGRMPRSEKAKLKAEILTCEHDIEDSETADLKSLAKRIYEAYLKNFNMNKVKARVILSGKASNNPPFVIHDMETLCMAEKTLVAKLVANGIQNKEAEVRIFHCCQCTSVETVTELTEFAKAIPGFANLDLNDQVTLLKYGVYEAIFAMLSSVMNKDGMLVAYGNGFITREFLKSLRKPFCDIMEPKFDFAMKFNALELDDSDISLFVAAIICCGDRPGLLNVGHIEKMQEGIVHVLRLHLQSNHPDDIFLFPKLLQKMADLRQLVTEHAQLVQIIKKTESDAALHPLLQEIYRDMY
The class given is functional.

For the next assay, the target named is T3, Adenosine receptor A1 (Homo sapiens, UniProt P30542).
T3 sequence (P30542 whole entry): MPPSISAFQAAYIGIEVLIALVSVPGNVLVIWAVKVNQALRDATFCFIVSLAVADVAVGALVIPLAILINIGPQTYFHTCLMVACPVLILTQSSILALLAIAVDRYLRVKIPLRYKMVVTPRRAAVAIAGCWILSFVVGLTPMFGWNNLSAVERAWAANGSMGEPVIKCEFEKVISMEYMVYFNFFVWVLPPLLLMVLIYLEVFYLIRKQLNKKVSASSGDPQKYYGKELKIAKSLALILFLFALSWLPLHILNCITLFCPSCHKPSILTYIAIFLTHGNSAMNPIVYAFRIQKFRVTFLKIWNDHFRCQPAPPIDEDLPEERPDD

In assay [3] the target is T4, Muscarinic acetylcholine receptor M5 (Homo sapiens, UniProt P08912).
T4 sequence (P08912 whole entry): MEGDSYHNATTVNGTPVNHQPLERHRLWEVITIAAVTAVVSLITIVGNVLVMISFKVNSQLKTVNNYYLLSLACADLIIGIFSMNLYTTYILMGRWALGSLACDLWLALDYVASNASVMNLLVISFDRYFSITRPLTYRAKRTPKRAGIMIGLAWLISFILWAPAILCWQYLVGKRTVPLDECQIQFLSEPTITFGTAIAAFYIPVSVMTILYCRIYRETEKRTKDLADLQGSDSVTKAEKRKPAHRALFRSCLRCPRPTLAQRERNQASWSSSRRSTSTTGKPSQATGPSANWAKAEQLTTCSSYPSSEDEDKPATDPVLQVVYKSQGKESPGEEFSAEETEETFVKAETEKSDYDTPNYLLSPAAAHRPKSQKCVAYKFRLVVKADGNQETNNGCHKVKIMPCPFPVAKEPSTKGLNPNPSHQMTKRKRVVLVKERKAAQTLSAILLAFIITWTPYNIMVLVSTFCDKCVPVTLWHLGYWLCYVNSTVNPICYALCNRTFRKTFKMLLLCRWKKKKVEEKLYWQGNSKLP

For a further assay, the target named is Cannabinoid receptor 1 (Homo sapiens, UniProt P21554). The class given is functional.
Assay [4] deals with 5-hydroxytryptamine receptor 7 (Homo sapiens, UniProt P34969).
Assay [5] addresses T1, Androgen receptor.
Assay [6] concerns the target Rod cGMP-specific 3',5'-cyclic phosphodiesterase subunit alpha (Homo sapiens, UniProt P16499). Type of assay: functional.
The target in a further assay is T5, Thromboxane A2 receptor (Homo sapiens, UniProt P21731).
T5 sequence (P21731 whole entry): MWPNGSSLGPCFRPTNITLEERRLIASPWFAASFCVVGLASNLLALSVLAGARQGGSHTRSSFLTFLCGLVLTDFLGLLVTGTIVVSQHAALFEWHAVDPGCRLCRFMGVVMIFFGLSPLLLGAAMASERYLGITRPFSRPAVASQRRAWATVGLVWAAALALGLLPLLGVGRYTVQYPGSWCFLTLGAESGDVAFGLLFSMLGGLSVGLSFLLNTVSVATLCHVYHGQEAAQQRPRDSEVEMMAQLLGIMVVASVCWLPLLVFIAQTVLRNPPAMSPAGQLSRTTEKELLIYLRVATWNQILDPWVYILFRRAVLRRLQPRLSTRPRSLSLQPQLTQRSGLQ
Type of assay: functional.

Structures are written as SMILES. Bounds are passed on as bounds.
Also: assay procedure not described here.

5-hydroxytryptamine receptor 7, sequence (P34969 whole entry): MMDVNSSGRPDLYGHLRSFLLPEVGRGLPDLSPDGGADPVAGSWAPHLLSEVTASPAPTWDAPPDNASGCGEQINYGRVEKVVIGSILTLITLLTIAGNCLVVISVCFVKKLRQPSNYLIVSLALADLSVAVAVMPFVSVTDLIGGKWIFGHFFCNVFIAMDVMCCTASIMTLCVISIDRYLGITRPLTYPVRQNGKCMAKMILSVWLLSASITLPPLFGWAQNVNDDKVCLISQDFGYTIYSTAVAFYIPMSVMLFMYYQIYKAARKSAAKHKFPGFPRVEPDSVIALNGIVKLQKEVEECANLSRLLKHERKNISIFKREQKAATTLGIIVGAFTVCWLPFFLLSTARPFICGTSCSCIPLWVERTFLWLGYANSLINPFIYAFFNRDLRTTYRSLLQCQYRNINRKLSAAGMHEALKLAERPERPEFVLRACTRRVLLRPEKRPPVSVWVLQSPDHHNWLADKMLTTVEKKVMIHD
Cannabinoid receptor 1, sequence (P21554 whole entry): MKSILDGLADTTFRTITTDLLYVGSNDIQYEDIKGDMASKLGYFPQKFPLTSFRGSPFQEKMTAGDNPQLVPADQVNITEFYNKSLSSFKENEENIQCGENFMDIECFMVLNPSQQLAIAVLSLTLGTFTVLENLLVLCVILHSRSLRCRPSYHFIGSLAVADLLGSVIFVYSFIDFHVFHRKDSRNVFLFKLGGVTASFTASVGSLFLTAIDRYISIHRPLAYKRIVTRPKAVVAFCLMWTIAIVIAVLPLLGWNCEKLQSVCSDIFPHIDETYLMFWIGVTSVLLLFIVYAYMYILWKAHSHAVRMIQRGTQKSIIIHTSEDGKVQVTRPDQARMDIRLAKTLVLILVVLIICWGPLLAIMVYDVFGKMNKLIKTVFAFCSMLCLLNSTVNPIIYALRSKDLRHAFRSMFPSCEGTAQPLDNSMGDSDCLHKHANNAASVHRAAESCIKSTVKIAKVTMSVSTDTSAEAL
Rod cGMP-specific 3',5'-cyclic phosphodiesterase subunit alpha, sequence (P16499 whole entry): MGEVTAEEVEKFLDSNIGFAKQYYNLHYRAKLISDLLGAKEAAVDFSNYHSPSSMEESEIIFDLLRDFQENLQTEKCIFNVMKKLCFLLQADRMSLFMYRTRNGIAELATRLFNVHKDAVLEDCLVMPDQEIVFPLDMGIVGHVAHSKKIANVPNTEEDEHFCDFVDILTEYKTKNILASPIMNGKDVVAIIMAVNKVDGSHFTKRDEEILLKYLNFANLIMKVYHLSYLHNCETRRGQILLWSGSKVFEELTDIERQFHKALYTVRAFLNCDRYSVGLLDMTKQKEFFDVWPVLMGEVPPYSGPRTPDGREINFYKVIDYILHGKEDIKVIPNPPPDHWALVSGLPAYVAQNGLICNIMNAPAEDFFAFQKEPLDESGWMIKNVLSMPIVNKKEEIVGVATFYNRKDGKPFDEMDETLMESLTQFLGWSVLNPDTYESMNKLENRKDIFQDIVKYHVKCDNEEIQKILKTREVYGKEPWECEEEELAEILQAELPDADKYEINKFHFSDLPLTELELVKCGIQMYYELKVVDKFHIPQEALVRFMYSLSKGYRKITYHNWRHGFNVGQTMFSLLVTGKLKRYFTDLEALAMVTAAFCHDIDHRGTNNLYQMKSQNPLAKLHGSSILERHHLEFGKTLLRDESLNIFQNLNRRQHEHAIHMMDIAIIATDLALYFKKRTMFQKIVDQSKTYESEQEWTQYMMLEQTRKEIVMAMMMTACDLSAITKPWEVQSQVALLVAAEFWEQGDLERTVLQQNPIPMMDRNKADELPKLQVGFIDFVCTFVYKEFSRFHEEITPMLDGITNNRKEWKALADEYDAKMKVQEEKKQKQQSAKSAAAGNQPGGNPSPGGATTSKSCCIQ

By AC50 is commonly meant the concentration at which the activity in the assay is half-maximal. Low values mean activity at low concentration, high ones activity only at high concentration. Consider `CC(=O)Nc1ccc(O)cc1` [ACETAMINOPHEN], for which the AC50 (on Androgen receptor [1]; in [2]) was above 30 µM each time.
As to `CCC1=C(C)CN(C(=O)NCCc2ccc(S(=O)(=O)NC(=O)N[C@H]3CC[C@H](C)CC3)cc2)C1=O` [GLIMEPIRIDE], the AC50 (on Adenosine receptor A1; in assay [2]) was above 30 µM in each case.
In the case of `CCC(C)n1ncn(-c2ccc(N3CCN(c4ccc(OCC5COC(Cn6cncn6)(c6ccc(Cl)cc6Cl)O5)cc4)CC3)cc2)c1=O` (configuration not stated) [ITRACONAZOLE], the AC50 in assay [3] was above 10 µM; on Cannabinoid receptor 1, above 10 µM; in assay [4], above 10 µM; in assay [2] it was above 30 µM.
With `CN1C(C(=O)Nc2ccccn2)=C(O)c2sc(Cl)cc2S1(=O)=O` [LORNOXICAM], the concentration at half-maximal activity (AC50) (at Androgen receptor [5]; in assay [2]) was above 30 µM in each case.
Turning to `Cc1c(C(=O)NN2CCCCC2)nn(-c2ccc(Cl)cc2Cl)c1-c1ccc(Cl)cc1` [RIMONABANT], the AC50 is above 30 µM on Androgen receptor [1]; above 30 µM at Androgen receptor [5]; above 10 µM in [3]; above 10 µM in assay [4]; above 10 µM in [6]; above 30 µM in [2]. For the same compound, the AC50 at Thromboxane A2 receptor is above 30 µM.

The values above are taken from ChEMBL document CHEMBL5291721, “A preclinical secondary pharmacology resource illuminates target-adverse drug reaction associations of marketed drugs” (Nat Commun, 2023).
